Data on 25 molecules can be found in patent US5869476A, “Pyrimidinone derivatives” (Boryung Pharmaceutical Co., Ltd., priority 1994, dated 1999).

This assay has as its target T1, angiotensin II receptor (Oryctolagus cuniculus, UniProt P34976).
T1 construct: The aorta was cut into 3~4 mm to form ring samples; from tissue; host or cells: isolated aorta rings of New Zealand White rabbits
T1 sequence (P34976 1-359): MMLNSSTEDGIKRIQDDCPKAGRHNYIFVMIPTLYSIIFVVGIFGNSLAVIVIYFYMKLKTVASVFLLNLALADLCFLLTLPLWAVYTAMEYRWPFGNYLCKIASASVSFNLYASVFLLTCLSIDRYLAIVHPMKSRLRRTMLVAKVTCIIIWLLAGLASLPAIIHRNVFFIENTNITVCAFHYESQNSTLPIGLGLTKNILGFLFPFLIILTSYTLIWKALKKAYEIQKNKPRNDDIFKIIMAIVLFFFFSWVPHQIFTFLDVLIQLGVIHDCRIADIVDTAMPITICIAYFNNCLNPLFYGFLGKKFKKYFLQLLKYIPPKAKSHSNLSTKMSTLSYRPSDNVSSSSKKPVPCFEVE
Briefly: inhibition of angiotensin II induced contraction of isolated rabbit aorta rings. The following applies: test compound incubated 20 minutes, 37° C., pH 7.4, read-out: IC50 (concentration being required to inhibit angiotensin II induced contraction by 50%). The class given is cell-based, New Zealand White rabbit. As for the experimental part:
The antagonistic activity of the representative compounds of the invention was evaluated using the methodology describe below.
From New Zealand White rabbits (male or female, 2~2.5 kg), aorta was isolated, and fat and connected tissue were removed therefrom. The aorta was cut into 3~4 mm to form ring samples. The aorta sample was suspended in 20 ml of organ bath (37° C.) containing modified Krebs-Henseleit solution saturated with 95% O2 /5% CO2 (pH 7.4).
The aorta preparation was exposed consecutively to 2 g of tensile strength for 90 minutes intermittently washing the sample with 30 minutes interval and then to 30 mM of KCl to observe contraction response. After washing more than three times, the aorta preparation was again allowed to contract three times for stabilization by adding Angiotensin II ([…]) thereto with 30 minutes interval. The third contraction response to Angiotensin II was considered as control.
10 minutes after the third contraction, the test compound was administered to the aorta preparation, which was incubated for 20 minutes.
Comparing angiotensin II contraction curve obtained from the above inhibition test with that of the control, IC50 (concentration being required to inhibit angiotensin II induced contraction by 50%) was determined for each test compound(Table 1).
As for `CCCCc1nc(=O)c(CC(=O)N2CCCCC2)c(C)n1Cc1ccc(-c2ccccc2-c2nn[nH]n2)cc1` [Compound 46, 2-n-butyl-5-piperidinocarbonylmethyl-6-methyl-1-[[2'-(1H-tetrazol-5-yl)biphenyl-4-yl]methyl]-pyrimidin-4-(1H)-one], the IC50 came out at 405 nM. For `CCCc1nc(C)c(CCC(=O)N(CC)CC)c(=O)n1Cc1ccc(-c2ccccc2-c2nnn[nH]2)cc1` [Compound 16, 2-n-propyl-5-(2'-diethylaminocarbonylethyl)-6-methyl-3-[[2'-(1H-tetrazol-5-yl)biphenyl-4-yl]methyl]-pyrimidin-4-(3H)-one] the value was 174 nM; for `CCCc1nc(C)c(CC(=O)N(CC)CC)c(=O)n1Cc1ccc(-c2ccccc2-c2nnn[nH]2)cc1` [Compound 12, 2-n-propyl-5-diethylaminocarbonylmethyl-6-methyl-3-[[2'-(1H-tetrazol-5-yl)biphenyl-4-yl]methyl]-pyrimidin-4-(3H)-one], 5.59 nM; for `CCCCc1nc(=O)c(CCC(=O)OCC)c(C)n1Cc1ccc(-c2ccccc2-c2nnn[nH]2)cc1` [Compound 24, 2-n-butyl-5-(2'-ethoxycarbonylethyl)-6-methyl-1-[[2'-(1H-tetrazol-5-yl)biphenyl-4-yl]methyl]-pyrimidin-4-(1H)-one], 169 nM. For `CCCCc1nc(C)c(CC(=O)N2CCSC2)c(=O)n1Cc1ccc(-c2ccccc2-c2nn[nH]n2)cc1` [Compound 72, 2-n-butyl-5-thiazolidinocarbonylmethyl-6-methyl-3-[[2'-(1H-tetrazol-5-yl)biphenyl-4-yl]methyl]-pyrimidin-4-(3H)-one] the value was 9.13 nM; for `CCCCc1nc(C)c(CC(=O)O)c(=O)n1Cc1ccc(-c2ccccc2C(=O)O)cc1` [Compound 39, 2-n-butyl-5-carboxymethyl-6-methyl-3-(2'-carboxybiphenyl-4-yl)methyl-pyrimidin-4-(3H)-one], 36.1 nM.

Regarding `CCCCc1nc(C)c(CCC(=O)N2CCSCC2)c(=O)n1Cc1ccc(-c2ccccc2-c2nn[nH]n2)cc1` [Compound 80, 2-n-butyl-5-(2'-thiomorpholinocarbonylethyl)-6-methyl-3-[[2'-(1H-tetrazol-5-yl)biphenyl-4-yl]methyl]-pyrimidin-4-(3H)-one], the IC50 turned out to be 4.06 nM. To `CCCCc1nc(C)c(CC(=O)N2CCN(C)CC2)c(=O)n1Cc1ccc(-c2ccccc2-c2nn[nH]n2)cc1` [Compound 76, 2-n-butyl-5-(4'-methylpiperazinocarbonylmethyl)-6-methyl-3-[[2'-(1H-tetrazol-5-yl)biphenyl-4-yl]methyl]-pyrimidin-4-(3H)-one] belongs 3.59 nM; to `CCCCc1nc(CCC)c(CCC(=O)OCC)c(=O)n1Cc1ccc(-c2ccccc2-c2nn[nH]n2)cc1` [Compound 36, 2-n-butyl-5-(2'-ethoxycarbonylethyl)-6-propyl-3-[[2'-(1H-tetrazol-5-yl)biphenyl-4-yl]methyl]-pyrimidin-4-(3H)-one], 44.5 nM; to `CCCCc1nc(C)c(CCC(=O)N2CCN(C/C=C/c3ccccc3)CC2)c(=O)n1Cc1ccc(-c2ccccc2-c2nn[nH]n2)cc1` [Compound 83, 2-n-butyl-5-[2'-(4"-trans-cinnamylpiperazino)carbonylethyl]-6-methyl-3-[[2'-(1H-tetrazol-5-yl)biphenyl-4-yl]methyl]-pyrimidin-4-(3H)-one], 151 nM. In the case of `CCCCc1nc(C)c(CC(=O)N2C(C)COCC2C)c(=O)n1Cc1ccc(-c2ccccc2-c2nn[nH]n2)cc1` (stereo not shown) [Compound 74, 2-n-butyl-5-(3',5'-dimethylmorpholinocarbonylmethyl)-6-methyl-3-[[2'-(1H-tetrazol-5-yl)biphenyl-4-yl]methyl]-pyrimidin-4-(3H)-one], the IC50 was 1.03 nM. For the molecule `CCCCc1nc(C)c(CC(=O)OCC)c(=O)n1Cc1ccc(-c2ccccc2C(=O)O)cc1` [Compound 38, 2-n-butyl-5-ethoxycarbonylmethyl-6-methyl-3-(2'-carboxy-biphenyl-4-yl)methyl-pyrimidin-4-(3H)-one], the IC50 worked out at 335 nM. To `CCCCc1nc(C)c(CCC(=O)N(CC)CC)c(=O)n1Cc1ccc(-c2ccccc2-c2nnn[nH]2)cc1` [Compound 27, 2-n-butyl-5-(2'-diethylaminocarbonylethyl)-6-methyl-3-[[2'-(1H-tetrazol-5-yl)biphenyl-4-yl]methyl]-pyrimidin-4-(3H )-one] belongs 30.8 nM; to `CCCCc1nc(C)c(CC(=O)N2CCCC2)c(=O)n1Cc1ccc(-c2ccccc2-c2nnn[nH]2)cc1` [Compound 40, 2-n-butyl-5-pyrrolidinocarbonylmethyl-6-methyl-3-[[2'-(1H-tetrazol-5-yl)biphenyl-4-yl]methyl]-pyrimidin-4-(3H)-one], 2.74 nM. For `CCCCc1nc(C)c(CCC(=O)N2CCCC2)c(=O)n1Cc1ccc(-c2ccccc2-c2nn[nH]n2)cc1` [Compound 58, 2-n-butyl-5-(2'-pyrrolidinocarbonylethyl)-6-methyl-3-[[2'-(1H-tetrazol-5-yl)biphenyl-4-yl]methyl]-pyrimidin-4-(3H)-one] the value was 5.86 nM; for `CCCCc1nc(C)c(CC(=O)N2CCCC(C(=O)N(CC)CC)C2)c(=O)n1Cc1ccc(-c2ccccc2-c2nn[nH]n2)cc1` (stereo not shown) [Compound 55, 2-n-butyl-5-(3'-diethylaminocarbonylpiperidinocarbonylmethyl)-6-methyl-3-[[2'-(1H-tetrazol-5-yl)biphenyl-4-yl]methyl]-pyrimidin-4-(3H)-one], 3.64 nM.

Regarding `CCCc1nc(C)c(CCC(=O)O)c(=O)n1Cc1ccc(-c2ccccc2-c2nnn[nH]2)cc1` [Compound 14, 2-n-propyl-5-(2'-carboxyethyl)-6-methyl-3-[[2'-(1H-tetrazol-5-yl)-biphenyl-4-yl]methyl]-pyrimidin-4-(3H)-one], the IC50 came to 7.39 nM. To `CCCCc1nc(C)c(CC(=O)N2CCC(C(N)=O)CC2)c(=O)n1Cc1ccc(-c2ccccc2-c2nn[nH]n2)cc1` [Compound 54, 2-n-butyl-5-(4'-aminocarbonylpiperidinocarbonylmethyl)-6-methyl-3-[[2'-(1H-tetrazol-5-yl)biphenyl-4-yl]methyl]-pyrimidin-4-(3H)-one] belongs 2.2 nM; to `CCCCc1nc(C)c(CCC(=O)N2CCC[C@H]2C(N)=O)c(=O)n1Cc1ccc(-c2ccccc2-c2nn[nH]n2)cc1` [Compound 60, 2-n-butyl-5-[2'-((S)-2"-aminocarbonylpyrrolidino)carbonylethyl]-6-methyl-3-[[2'-(1H-tetrazol-5-yl)biphenyl-4-yl]methyl]-pyrimidin-4-(3H)-one], 2.88 nM; to `CCCCc1nc(C)c(CC(=O)N2CCC(Cc3ccccc3)CC2)c(=O)n1Cc1ccc(-c2ccccc2-c2nn[nH]n2)cc1` [Compound 47, 2-n-butyl-5-(4'-benzylpiperidinocarbonylmethyl)-6-methyl-3-[[2'-(1H-tetrazol-5-yl)biphenyl-4-yl]methyl]-pyrimidin-4-(3H) -one], 128 nM. Take `CCc1nc(C)c(CC(=O)O)c(=O)n1Cc1ccc(-c2ccccc2-c2nnn[nH]2)cc1` [Compound 2, 2-ethyl-5-carboxymethyl-6-methyl-3-[[2'-(1H-tetrazol-5-yl)-biphenyl-4-yl]methyl]-pyrimidin-4-(3H)-one]: the IC50 worked out at 14.2 nM. On to `CCCCc1nc(C)c(CC(=O)N2CCCC(C)(C)C2)c(=O)n1Cc1ccc(-c2ccccc2-c2nn[nH]n2)cc1` [Compound 49, 2-n-butyl-5-(3',3'-dimethylpiperidinocarbonylmethyl)-6-methyl-3-[[2'-(1H-tetrazol-5-yl)biphenyl-4-yl]methyl]-pyrimidin-4-(3H)-one], for which the IC50 is 8.96 nM.

Take `CCCCc1nc(=O)c(CCC(=O)O)c(C)n1Cc1ccc(-c2ccccc2-c2nnn[nH]2)cc1` [Compound 26, 2-n-butyl-5-(2'-carboxyethyl)-6-methyl-1-[[2'-(1H-tetrazol-5-yl)-biphenyl-4-yl]methyl]-pyrimidin-4-(1H)-one]: the IC50 is 42.8 nM. To `CCCCc1nc(=O)c(CCCC(=O)O)c(C)n1Cc1ccc(-c2ccccc2-c2nn[nH]n2)cc1` [Compound 31, 2-n-butyl-5-(3'-carboxypropyl)-6-methyl-1-[[2'-(1H-tetrazol-5-yl)biphenyl-4-yl]methyl]-pyrimidin-4-(1H)-one] belongs 17 nM; to `CCCCc1nc(C)c(CCC(=O)N2CCC(C(=O)OCC)CC2)c(=O)n1Cc1ccc(-c2ccccc2-c2nn[nH]n2)cc1` [Compound 66, 2-n-butyl-5-[2'-(4"-ethoxycarbonylpiperidino)carbonylethyl]-6-methyl-3-[[2'-(1H-tetrazol-5-yl)biphenyl-4-yl]methyl]-pyrimidin-4-(3H)-one], 9.7 nM.
